Test results as given in ChEMBL document CHEMBL1158279, “Isolation and structure of leukotriene-A4 hydrolase inhibitor: 8(S)-amino-2(R)-methyl-7-oxononanoic acid produced by Streptomyces diastaticus” (J Nat Prod, 1996).

Legend:
[1] = target: T1, Leukotriene A-4 hydrolase (Homo sapiens, UniProt P09960); assay: Inhibition of human recombinant LTA4 hydrolase assessed as LTB4 production after 30 mins by ELISA
T1 sequence (P09960 whole entry): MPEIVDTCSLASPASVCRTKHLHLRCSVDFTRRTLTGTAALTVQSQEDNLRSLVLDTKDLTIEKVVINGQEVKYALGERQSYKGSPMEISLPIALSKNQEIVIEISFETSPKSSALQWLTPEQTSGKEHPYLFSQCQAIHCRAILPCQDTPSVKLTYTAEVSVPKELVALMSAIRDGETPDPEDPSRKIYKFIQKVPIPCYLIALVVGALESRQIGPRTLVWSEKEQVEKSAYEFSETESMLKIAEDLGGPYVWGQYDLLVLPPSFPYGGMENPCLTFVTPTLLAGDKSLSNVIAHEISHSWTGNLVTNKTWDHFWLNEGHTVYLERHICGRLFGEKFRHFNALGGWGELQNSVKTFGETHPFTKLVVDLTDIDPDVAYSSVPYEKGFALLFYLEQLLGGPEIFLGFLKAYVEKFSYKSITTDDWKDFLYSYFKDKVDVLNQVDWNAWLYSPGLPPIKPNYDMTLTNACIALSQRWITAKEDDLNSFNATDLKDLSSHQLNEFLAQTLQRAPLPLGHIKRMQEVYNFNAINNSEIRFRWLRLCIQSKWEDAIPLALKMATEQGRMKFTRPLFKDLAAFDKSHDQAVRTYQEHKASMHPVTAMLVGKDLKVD

Blood [2] = assay: Inhibition of LTB4 production in human whole blood after 15 mins by ELISA; assay type: functional, tissue-based; settings: 0.25 h
[3] = target: T1, Leukotriene A-4 hydrolase; assay: Inhibition of human recombinant LTA4 aminopeptidase activity spectrophotometric analysis
[4] = target: T2, Angiotensin-converting enzyme (Oryctolagus cuniculus, UniProt P12822); assay: Inhibition of rabbit lung ACE
T2 sequence (P12822 whole entry): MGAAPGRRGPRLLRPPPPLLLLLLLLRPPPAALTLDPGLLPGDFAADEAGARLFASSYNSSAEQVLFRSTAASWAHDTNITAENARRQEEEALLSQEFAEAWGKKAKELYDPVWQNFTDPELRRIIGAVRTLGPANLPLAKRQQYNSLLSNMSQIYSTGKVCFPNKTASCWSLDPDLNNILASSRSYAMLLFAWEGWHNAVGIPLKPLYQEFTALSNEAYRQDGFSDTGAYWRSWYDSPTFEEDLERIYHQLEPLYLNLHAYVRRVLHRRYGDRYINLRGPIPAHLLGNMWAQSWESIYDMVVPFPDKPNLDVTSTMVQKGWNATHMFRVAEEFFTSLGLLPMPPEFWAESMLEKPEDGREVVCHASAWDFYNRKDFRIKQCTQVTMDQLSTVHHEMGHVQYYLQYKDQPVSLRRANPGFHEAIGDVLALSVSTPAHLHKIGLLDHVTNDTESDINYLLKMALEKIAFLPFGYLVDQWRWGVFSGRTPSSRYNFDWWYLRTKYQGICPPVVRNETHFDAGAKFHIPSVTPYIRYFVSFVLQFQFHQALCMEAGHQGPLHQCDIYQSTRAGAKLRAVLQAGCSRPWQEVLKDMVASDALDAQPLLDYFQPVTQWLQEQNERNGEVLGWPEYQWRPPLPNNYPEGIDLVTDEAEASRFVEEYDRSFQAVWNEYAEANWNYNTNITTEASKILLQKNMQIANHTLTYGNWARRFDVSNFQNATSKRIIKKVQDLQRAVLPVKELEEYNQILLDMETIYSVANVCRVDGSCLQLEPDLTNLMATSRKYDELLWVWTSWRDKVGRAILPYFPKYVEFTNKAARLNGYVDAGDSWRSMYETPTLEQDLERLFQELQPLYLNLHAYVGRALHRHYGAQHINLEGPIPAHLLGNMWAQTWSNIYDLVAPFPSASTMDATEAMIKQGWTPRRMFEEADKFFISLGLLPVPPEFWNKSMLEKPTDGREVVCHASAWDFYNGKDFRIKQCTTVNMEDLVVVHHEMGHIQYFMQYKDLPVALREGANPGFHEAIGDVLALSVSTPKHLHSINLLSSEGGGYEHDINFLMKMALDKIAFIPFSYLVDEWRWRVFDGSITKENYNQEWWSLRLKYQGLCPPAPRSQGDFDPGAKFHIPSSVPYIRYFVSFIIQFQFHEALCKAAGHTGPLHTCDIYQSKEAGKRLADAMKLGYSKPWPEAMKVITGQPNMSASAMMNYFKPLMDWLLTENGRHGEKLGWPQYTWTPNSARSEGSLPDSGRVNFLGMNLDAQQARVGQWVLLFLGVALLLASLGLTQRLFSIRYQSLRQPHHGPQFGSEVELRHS

Blood [5] = assay: Inhibition of TxB2 production in human whole blood after 15 mins by ELISA; assay type: functional, tissue-based; settings: 0.25 h

## C[C@H](N)C(=O)CCCC[C@@H](C)C(=O)O
[1]
  IC50: 0.57 µM
Blood [2]
  IC50: 7 µM
[3]
  IC50: 0.3 µM
[4]
  IC50: > 100 µM
Blood [5]
  IC50: > 30 µM
